Where “and” joins values, the source holds several entries; their conditions need not be identical. Equal entries are not always repeated.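 Protocol summary: plate cells (96-well), add compound at 5 concentrations, incubate 48 h, interpolate endpoints linearly. GI50: concentration for 50% inhibition of growth.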 Calls of active or inactive are those of the source. No stated cut-off is given here; in the data, active = GI50 up to about 1.1 µM and inactive = higher.
What was measured:
Assay in all cases: NCI anticancer screen, dose series, 48 h
SN12C = system: SN12C
NCI-H23 = system: NCI-H23
TK-10 = system: TK-10
EKVX = system: EKVX
MOLT-4 = system: MOLT-4
HT-29 = system: HT-29
SF-268 = system: SF-268
SK-OV-3 = system: SK-OV-3
SK-MEL-2 = system: SK-MEL-2
SNB-75 = system: SNB-75
HCT-15 = system: HCT-15
786-0 = system: 786-0
NCI-H226 = system: NCI-H226
OVCAR-3 = system: OVCAR-3
OVCAR-5 = system: OVCAR-5
CAKI-1 = system: CAKI-1
SNB-19 = system: SNB-19
HCT-116 = system: HCT-116

Measured: GI50

Cc1nc(-n2nc(-c3ccccc3)cc2-c2ccccc2)sc1C(=O)/C=C/c1ccc(Cl)cc1
inactive: SN12C 25.6 µM | NCI-H23 16.3 µM | TK-10 38.1 µM | EKVX 13.4 µM | MOLT-4 11.7 µM | HT-29 14.4 µM | SF-268 29 µM | SK-OV-3 28.1 µM | SK-MEL-2 19.6 µM | SNB-75 6.1 µM | 786-0 14.4 µM | NCI-H226 16 µM | OVCAR-3 15.9 µM | OVCAR-5 34.8 µM | CAKI-1 17.5 µM
22.2 µM: HCT-15

CCCCCC1CC=CC(NC(=O)OCc2ccccc2)C1/C=C/CCCC1OCCO1 (stereo not drawn)
inactive: SN12C > 100 µM | NCI-H23 44.7 µM | TK-10 97.7 µM | EKVX 96.6 µM | MOLT-4 12.5 µM | SNB-19 74.1 µM | HCT-116 35.8 µM | HT-29 > 100 µM | SF-268 > 42.8 µM | SK-OV-3 > 100 µM | SK-MEL-2 35.2 µM | SNB-75 > 56 µM | 786-0 > 100 µM | NCI-H226 30.9 µM | OVCAR-3 38.5 µM | OVCAR-5 > 53.8 µM | CAKI-1 23.5 µM
86.7 µM: HCT-15

[N-]=[N+]=NC(c1cn(C2CC(O)C(CO)O2)c(=O)[nH]c1=O)C(I)I (stereo not drawn)
inactive: SN12C > 100 µM | NCI-H23 71 µM | TK-10 > 100 µM | EKVX > 100 µM | MOLT-4 > 100 µM | SNB-19 > 100 µM | HCT-116 > 100 µM | HT-29 > 100 µM | SF-268 56.1 µM | SK-OV-3 > 100 µM | SK-MEL-2 > 100 µM | 786-0 > 100 µM | NCI-H226 9.55 µM | OVCAR-3 > 100 µM | OVCAR-5 > 100 µM | CAKI-1 > 100 µM

C/C(=N\NC(=O)c1ccccc1O)C1=CNc2ccccc2S1
inactive: SN12C 4.05 µM | NCI-H23 3.6 µM | TK-10 5.57 µM | EKVX 15.3 µM | MOLT-4 2.08 µM | SNB-19 5.56 µM | HCT-116 3.66 µM | HT-29 7.85 µM | SF-268 3.61 µM | SK-OV-3 15.6 µM | SK-MEL-2 2.15 µM | SNB-75 8.2 µM | 786-0 4.71 µM | NCI-H226 4.35 µM | OVCAR-3 3.01 µM | OVCAR-5 3.18 µM | CAKI-1 6.38 µM

CN(C)C(=N)NC(N)=S
> 100 µM: HCT-15
inactive: SN12C > 100 µM | NCI-H23 > 100 µM | TK-10 > 100 µM | EKVX > 100 µM | MOLT-4 > 100 µM | SNB-19 > 100 µM | HCT-116 > 100 µM | HT-29 > 100 µM | SF-268 > 100 µM | SK-OV-3 > 100 µM | SNB-75 > 100 µM | 786-0 > 100 µM | NCI-H226 > 100 µM | OVCAR-3 > 100 µM | OVCAR-5 > 100 µM | CAKI-1 > 100 µM

COc1ccc(N2C(=O)c3c(c4[nH]c5ccccc5c4c4ccc(C(C)(C)C)cc34)C2=O)cc1
42.8 µM: HCT-15
inactive: SN12C 64 µM | NCI-H23 20 µM | TK-10 51.4 µM | EKVX 64 µM | MOLT-4 21.6 µM | SNB-19 54.2 µM | HCT-116 69.7 µM | SF-268 29.2 µM | SK-OV-3 42.1 µM | SK-MEL-2 26.2 µM | SNB-75 16.6 µM | 786-0 28.4 µM | NCI-H226 35.8 µM | OVCAR-3 27.2 µM | OVCAR-5 > 100 µM | CAKI-1 42 µM

Cc1ccc(S(=O)(=O)NNS(C)(=O)=O)cc1
inactive: SN12C > 100 µM | NCI-H23 > 100 µM | TK-10 > 100 µM | EKVX > 100 µM | MOLT-4 > 100 µM | SNB-19 > 100 µM | HCT-116 > 100 µM | HT-29 > 100 µM | SF-268 > 100 µM | SK-MEL-2 > 100 µM | SNB-75 > 100 µM | 786-0 > 100 µM | OVCAR-3 > 100 µM | CAKI-1 > 100 µM
> 100 µM: HCT-15

CCOc1ccccc1NC(=O)CCc1n[nH]c(=S)o1
inactive: SN12C > 100 µM | NCI-H23 > 100 µM | TK-10 > 100 µM | EKVX > 100 µM | MOLT-4 > 100 µM | SNB-19 > 100 µM | HCT-116 > 100 µM | HT-29 > 100 µM | SF-268 > 100 µM | SK-OV-3 > 100 µM | SK-MEL-2 > 100 µM | SNB-75 > 100 µM | 786-0 > 100 µM | NCI-H226 > 100 µM | OVCAR-3 > 100 µM | CAKI-1 > 100 µM

Cc1cccc(-c2nnc(S)[nH]2)c1
inactive: SN12C > 100 µM | NCI-H23 > 100 µM | TK-10 > 100 µM | EKVX > 100 µM | MOLT-4 89.5 µM | SNB-19 > 100 µM | HCT-116 > 100 µM | HT-29 > 100 µM | SF-268 > 100 µM | SK-OV-3 > 100 µM | SK-MEL-2 > 100 µM | SNB-75 > 100 µM | 786-0 > 100 µM | NCI-H226 > 100 µM | OVCAR-3 > 100 µM | OVCAR-5 > 100 µM | CAKI-1 > 100 µM
> 100 µM: HCT-15

CCOC(=O)C1Oc2ccc([N+](=O)[O-])cc2C1(C)O (stereo not drawn)
inactive: SN12C > 100 µM | NCI-H23 > 100 µM | TK-10 > 100 µM | EKVX > 100 µM | MOLT-4 > 100 µM | SNB-19 > 100 µM | HT-29 > 100 µM | SF-268 > 100 µM | SK-OV-3 > 100 µM | SK-MEL-2 > 100 µM | SNB-75 > 100 µM | 786-0 > 100 µM | NCI-H226 > 100 µM | OVCAR-3 > 100 µM | OVCAR-5 > 100 µM
> 100 µM: HCT-15

CCOC(OC1=C(C#N)CCC1)C(CC)[Se]c1ccccc1 (stereo not drawn)
25.6 µM: HCT-15
inactive: SN12C 14.3 µM | NCI-H23 9.98 µM | TK-10 > 100 µM | EKVX 35.7 µM | MOLT-4 16.8 µM | SNB-19 48.1 µM | HCT-116 26.2 µM | HT-29 26.4 µM | SF-268 18.8 µM | SK-OV-3 > 100 µM | SK-MEL-2 20.9 µM | SNB-75 24.2 µM | 786-0 15 µM | NCI-H226 19.2 µM | OVCAR-3 22.1 µM | OVCAR-5 22.7 µM | CAKI-1 41 µM

C=CCOC1=C2CC[C@H](O)[C@@]2(C)CCC1=O
inactive: SN12C > 100 µM | TK-10 > 100 µM | EKVX > 100 µM | MOLT-4 > 100 µM | SNB-19 > 100 µM | HCT-116 > 100 µM | HT-29 > 100 µM | SF-268 > 100 µM | SK-OV-3 > 100 µM | SNB-75 > 100 µM | 786-0 > 100 µM | NCI-H226 > 100 µM | OVCAR-3 > 100 µM | OVCAR-5 > 100 µM | CAKI-1 > 100 µM
> 100 µM: HCT-15

O=S1(=O)c2ccccc2N=C(c2ccccc2Cl)CC1c1ccc(F)cc1 (stereo not drawn)
18.1 µM: HCT-15
inactive: SN12C 15.2 µM | NCI-H23 17.1 µM | TK-10 22.5 µM | EKVX 18.1 µM | MOLT-4 13.7 µM | SNB-19 16.8 µM | HCT-116 10.8 µM | SF-268 22.1 µM | SK-OV-3 43.2 µM | SK-MEL-2 17.8 µM | SNB-75 25.5 µM | 786-0 16.6 µM | OVCAR-3 14.3 µM | OVCAR-5 15.7 µM | CAKI-1 14.4 µM

CC(=O)OCC1OC(n2c(=S)n(-c3ccccc3)c(=O)c3cc(Br)ccc32)C(OC(C)=O)C(OC(C)=O)C1OC(C)=O (stereo not drawn)
> 100 µM: HCT-15
inactive: SN12C > 100 µM | NCI-H23 > 100 µM | EKVX > 100 µM | MOLT-4 > 100 µM and 94.6 µM | SNB-19 > 100 µM and 70.5 µM | HT-29 > 100 µM | SF-268 > 100 µM | SK-OV-3 > 100 µM | 786-0 > 100 µM | NCI-H226 > 100 µM | OVCAR-3 > 100 µM | OVCAR-5 > 100 µM | CAKI-1 > 100 µM

Cc1noc(C)c1C1=CCCCc2ccccc21
inactive: SN12C > 100 µM | NCI-H23 > 100 µM | EKVX 63.4 µM | MOLT-4 25.7 µM | SNB-19 > 100 µM | HCT-116 > 100 µM | HT-29 > 100 µM | SF-268 > 100 µM | SK-OV-3 > 100 µM | SK-MEL-2 > 100 µM | SNB-75 23.4 µM | 786-0 > 100 µM | OVCAR-3 79.4 µM | OVCAR-5 > 100 µM
99.8 µM: HCT-15

CC1=Nn2c(nnc2-c2ccccc2Cl)NC(C)(C)C1
51.9 µM: HCT-15
inactive: SN12C > 100 µM | NCI-H23 > 100 µM | TK-10 > 100 µM | EKVX > 100 µM | MOLT-4 47.3 µM | SNB-19 > 100 µM | HCT-116 > 100 µM | HT-29 > 100 µM | SF-268 > 100 µM | SK-OV-3 > 100 µM | SK-MEL-2 > 100 µM | SNB-75 > 100 µM | 786-0 > 100 µM | NCI-H226 > 100 µM | OVCAR-5 > 100 µM | CAKI-1 > 100 µM

C=CC/C=C/C/C=C/CCCCCCCc1cccc(O)c1C(=O)O
inactive: NCI-H23 29.6 µM | TK-10 54.7 µM | EKVX 49 µM | MOLT-4 42.8 µM | SNB-19 34.9 µM | HCT-116 > 100 µM | HT-29 48.8 µM | SF-268 24.3 µM | SK-OV-3 25.2 µM | SK-MEL-2 49 µM | SNB-75 43.4 µM | 786-0 > 100 µM | OVCAR-3 35.4 µM | OVCAR-5 > 100 µM | CAKI-1 32.1 µM
48 µM: HCT-15

Source: ChEMBL document CHEMBL1201862, “PubChem BioAssay data set” (2004)
